This note sets out measurements from patent publication US9931335B2, “Desethylhydroxychloroquine for the treatment of diseases associated with inflammation” (The Board of Trustees of the Leland Stanford Junior …, priority 2013, dated 2018).

The structures appear in SMILES notation.

Test [1] relates to TNF production by human peripheral blood mononuclear cells (PBMCs). Put plainly: LPS-stimulated TNF production by human PBMCs (ELISA). The class given is cell-based. The settings on record: LPS 10 μg/ml, 10, 25 and 50 μM compound, 14 hours; vs LPS alone. As to the method: DHCQ reduced the production of the pro-inflammatory cytokine tumor necrosis factor (TNF) by human peripheral blood mononuclear cells (PBMCs) in response to pro-inflammatory lipopolysaccharide (LPS) stimulation (FIG. 10). Human PBMCs were isolated using Ficoll, 200,000 PBMCs were added to each well of a 96-well plate, and stimulated with LPS 10 μg/ml in the presence of a range of concentrations from 0 to 50 μM DHCQ, or 0 to 50 μM HCQ, for 14 hours, following which culture supernatants were collected and TNF measured by ELISA. Assays were run in triplicate.
Isolation of human PBMCs and monocytes. The Ficoll-Paque™ Plus (Cat; 17-1440-03GE Healthcare) was used to isolate human peripheral blood mononuclear cells (PBMCs) from blood collected from healthy donors. For cell culture, the isolated PBMCs were resuspended in culture medium (RPM11640) containing 10% FCS and antibiotics (penicillin 100 IU/mL and streptomycin 100 μg/mL). Monocyte Isolation Kit II (Cat; 130-091-153, Miltenyi Biotec) was used to isolate monocytes from the suspension of human PBMCs.
Stimulation assays. […]
Readout. […] For each assay, a parallel well treated identically was prepared and level of LDH measured to assure no evidence of cell death was induced by drug treatment.
In general terms: An ELISA detects its analyte on a solid surface through an enzyme-linked reagent.

For test [2], the system named is diet-induced obesity in C57BL/6 mice. Put plainly: Mouse diet-induced obesity: type II diabetes, hyperlipidemia and metabolic syndrome. It counts as in vivo. As to conditions: 10 mg/kg/day, 6 weeks; for total cholesterol / triglycerides / blood glucose: vs vehicle; for blood glucose: two-tailed T test. As to the method:
To evaluate treatment with DHCQ and HCQ on a mouse model of diet-induced type II diabetes, hyperlipidemia and metabolic syndrome, C57BL/6 mice (8 per group) were fed a high-fat “western-style” diet (60% caloric content from fat; Taconic). In an analogous fashion to that in Example 6, two weeks following initiation of the high-fat diet groups of mice were initiated on treatment with vehicle control, HCQ (10 mg/kg/day) or the HCQ metabolites DHCQ (10 mg/kg/day), DCQ (10 mg/kg/day), or BDCQ (10 mg/kg/day). After 6 weeks of treatment, blood was collected for analysis of glucose, triglyceride, and cholesterol levels.

The subject of test [3] is high-fat diet-induced NASH in C57BL/6 mice. Kind of test: High fat diet-induced NAFLD/NASH in mice, prevention. The settings on record: for liver score (NASH histology): 100 mg/kg/day from start of high-fat diet, vs vehicle (DHCQ P<0.001, HCQ P<0.05). The class given is in vivo, mouse. As to the method: To evaluate the effect of DHCQ and HCQ on an animal model of non-alcoholic fatty liver disease (NAFLD) which can lead to the development of NASH, C57BL/6 mice (8 per group) were fed a high-fat “western-style” diet (60% caloric content from fat; Taconic) for 6 weeks. The mice were asymptomatic throughout this time, but were developing a pre- or early-disease state. The mice were treated, starting at the time of initiation of the high-fat diet, with HCQ (100 mg/kg/day), DHCQ (100 mg/kg/day), or vehicle control, to prevent the development of NAFLD and NASH. After 6 weeks of treatment with DHCQ, HCQ and vehicle (control) while on a high-fat diet, blood was collected and mice sacrificed for histological analysis of liver pathology. Livers from the mice in each treatment group were fixed, embedded, sectioned, stained with H&E, representative micrographs are presented in FIG. 7A (both 10× and 20× magnification), “liver scores” determined using an established scoring system for NASH (Brunt et al, Nonalcoholic steatohepatitis: a proposal for grading and staging the histological lesions, American J. Gastroenterology, 1999, 94(9):2467-74).

Setting [4] is: 100 mg/kg/day, 6 weeks, vs vehicle.

On to `CC(CCCNCCO)Nc1ccnc2cc(Cl)ccc12` (centres unmarked) [DHCQ, desethylhydroxychloroquine], for which the TNF production entry in test [1] was “reduced PMBC TNF production”. In addition, in test [2], the “treatment of diet-induced metabolic disease compared to HCQ, DCQ and BDCQ” value is “statistically more effectively than HCQ, DCQ and BDCQ”; the total cholesterol entry was “statistical reductions in total cholesterol”; the triglycerides entry is “statistical reductions”; the blood glucose entry is given as “statistical reduction in blood glucose levels”. Also, the “liver score (NASH histology)” value in test [3] (6 weeks) is recorded as “statistically reduced”. In addition, in test [3] (setting [4]), the “serum ALT” value is “prevents and reduces abnormal elevations”; the “serum AST” value is “prevents and reduces abnormal elevations”. The “liver score, AST and ALT compared to HCQ” value in test [3] (P<0.05 two-tailed T test) is given as “statistically superior activity to HCQ”.

For `CCN(CCO)CCCC(C)Nc1ccnc2cc(Cl)ccc12` (centres unmarked) [HCQ, hydroxychloroquine], in test [1], the TNF production result is recorded as “reduced PMBC TNF production”. In test [2], the total cholesterol result was “did not result in statistical reductions”, the triglycerides result was “did not result in statistical reductions” and the blood glucose result was “did not result in statistical reductions in blood glucose”. In addition, the “liver score (NASH histology)” value in test [3] (6 weeks) is “statistically reduced”.
